In publication PMC3898987 (Bioorganic & Medicinal Chemistry, 2013):
Changes are numbered by the printed parent chain.

How the values were obtained:
[1] = biological target: T1, 5-HT3AB receptor, 5-HT3B subunit W90C (Homo sapiens, UniProt O95264+P46098, W83C); experiment: FlexStation membrane potential dye functional assay, HEK293 cells; conditions: 5-HT concentration-response, 5-HT3AB with 5-HT3B W90C
T1 sequence (P46098 24-478): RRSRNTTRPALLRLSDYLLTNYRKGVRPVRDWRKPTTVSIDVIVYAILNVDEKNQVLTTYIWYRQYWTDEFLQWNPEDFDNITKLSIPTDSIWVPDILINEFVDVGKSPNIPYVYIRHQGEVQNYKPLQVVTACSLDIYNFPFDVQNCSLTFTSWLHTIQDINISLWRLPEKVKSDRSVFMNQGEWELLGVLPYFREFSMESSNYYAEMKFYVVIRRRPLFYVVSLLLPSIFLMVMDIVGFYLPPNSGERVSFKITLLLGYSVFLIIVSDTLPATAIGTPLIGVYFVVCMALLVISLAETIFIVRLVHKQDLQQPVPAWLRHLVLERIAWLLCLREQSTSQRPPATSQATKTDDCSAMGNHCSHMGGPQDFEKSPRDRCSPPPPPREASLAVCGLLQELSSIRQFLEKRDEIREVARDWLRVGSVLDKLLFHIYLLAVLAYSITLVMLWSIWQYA
T1 sequence (O95264 22-441 W83C): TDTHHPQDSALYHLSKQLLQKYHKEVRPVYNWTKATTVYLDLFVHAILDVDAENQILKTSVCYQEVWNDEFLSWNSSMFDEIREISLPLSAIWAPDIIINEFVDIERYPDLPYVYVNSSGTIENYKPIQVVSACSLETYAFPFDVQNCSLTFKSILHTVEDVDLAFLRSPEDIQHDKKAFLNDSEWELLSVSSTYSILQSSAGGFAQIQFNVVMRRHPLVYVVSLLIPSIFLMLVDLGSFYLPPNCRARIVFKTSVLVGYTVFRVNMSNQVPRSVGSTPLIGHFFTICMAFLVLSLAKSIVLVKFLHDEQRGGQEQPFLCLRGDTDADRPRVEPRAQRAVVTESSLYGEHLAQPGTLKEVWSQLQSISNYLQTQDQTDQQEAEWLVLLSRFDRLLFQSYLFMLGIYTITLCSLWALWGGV
Method: Human embryonic kidney (HEK) 293 cells were cultured on 90 mm tissue culture plates at 37 °C and 7% CO2 in a humidified atmosphere. They were grown in DMEM:F12 (Dulbecco’s Modified Eagle’s Medium/Nutrient Mix F12 (1:1)) with GlutaMAX I™ containing 10% fetal calf serum and passaged when confluent. […] For FlexStation assays, transfected cells were plated on 96-well plates and incubated 1–2 days before assay.
(§1) Fluorometric studies were undertaken using a FlexStation® (Molecular Devices, Sunnyvale, CA, USA) as previously described.[11]
(§2) Fluorescence was measured every 2 s for 200 s. […] Concentration–response and inhibition curves were obtained for each mutant, and the fluorescence values were normalized to the maximal response.

5-HT3A receptor Y73A = biological target: T2, 5-HT3A receptor Y73A (Homo sapiens, UniProt P46098, Y68A); experiment: as above; type: cell-based; set-up: expressed in transfected cells; host or cells: HEK293; conditions: inhibition of 5-HT (EC50 concentration) response, 45 min preincubation, 5-HT3A Y73A
T2 sequence (P46098 24-478 Y68A): T1 sequence (P46098 24-478) with Y45A
Method: For FlexStation assays, transfected cells were plated on 96-well plates and incubated 1–2 days before assay.
as §1, §2

5-HT3A receptor Y73F = biological target: T3, 5-HT3A receptor Y73F (Homo sapiens, UniProt P46098, Y68F); experiment: radioligand saturation binding, transfected HEK293 membranes; conditions: [3H]-palonosetron saturation, 5-HT3A Y73F, 4 °C, 24 h
T3 sequence (P46098 24-478 Y68F): T1 sequence (P46098 24-478) with Y45F
Method: (§3) Human embryonic kidney (HEK) 293 cells were cultured on 90 mm tissue culture plates at 37 °C and 7% CO2 in a humidified atmosphere. They were grown in DMEM:F12 (Dulbecco’s Modified Eagle’s Medium/Nutrient Mix F12 (1:1)) with GlutaMAX I™ containing 10% fetal calf serum and passaged when confluent. For radioligand binding studies, cells in 90 mm dishes were transfected at 60–70% confluency using polyethyleneimine and incubated for 3–4 days before use. For FlexStation assays, transfected cells were plated on 96-well plates and incubated 1–2 days before assay. […]
(§4) Eight-point binding assays were performed to produce saturation binding curves. […] Radioactive counts were measured using a Beckman LS6000SC liquid scintillation counter (Fullerton, California, USA).
(§5) Data were analyzed by iterative curve fitting using GraphPad Prism v5 (San Diego, CA) according to the following equation: B=Bmax[L]^n/kdn+[L]^n where B is the amount of bound radioligand, Bmax is the maximum specific binding at equilibrium, [L] is the concentration of radioligand, Kd is the equilibrium dissociation constant of the radioligand, and n is the Hill coefficient.

[2] = biological target: T4, 5-HT3AB receptor, 5-HT3B subunit H73A (Homo sapiens, UniProt O95264+P46098, H66A); experiment: as above; conditions: [3H]-palonosetron saturation, 5-HT3AB with 5-HT3B H73A, 4 °C, 24 h
T4 sequence (P46098 24-478): T1 sequence (P46098 24-478)
T4 sequence (O95264 22-441 H66A): T1 sequence (O95264 22-441 W83C) with H45A, C62W
Method: as §3, §4, §5

SMILES	Hill Coefficient [1]	IC50 (5-HT3A receptor Y73A) [nM]	Kd (5-HT3A receptor Y73F) [nM]	Kd [2] [nM]
NCCc1c[nH]c2ccc(O)cc12 [5-HT, serotonin]	2.0 ± 0.4			
O=C1c2cccc3c2[C@H](CCC3)CN1[C@@H]1CN2CCC1CC2 [Palonosetron]		13.1 ± 1.6	0.25 ± 0.04	0.14 ± 0.02
